According to patent publication US4471131A, “Novel silyl esters of N-phosphonomethylglycine” (Monsanto Company, priority 1983, dated 1984):

Experiments:
Assay in all cases: post-emergence herbicidal activity, greenhouse
Format in all cases: in vivo
Canada Thistle = conditions: Table II, formulated in anhydrous tetrahydrofuran
Procedure, shortened: (§1)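 Each treated pan, grown from seed in topsoil and watered from below, was sprayed at the age of two to three weeks with a solution or suspension of about 0.4% emulsifier by weight carrying the test compound. Injury relative to control pans was recorded roughly two and four weeks afterward.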

Panicum Spp = conditions: Table III
Procedure, shortened: as §1

Velvetleaf = system: Velvetleaf
Procedure, shortened: as §1

Common Lambsquarters = system: Common Lambsquarters
Procedure, shortened: as §1

Pennsylvania Smartweed = system: Pennsylvania Smartweed
Procedure, shortened: as §1

[1] = Table II, 2 WAT, 5.6 kg/h, formulated in anhydrous tetrahydrofuran
[2] = Table II, 2 WAT, 11.2 kg/h, formulated in anhydrous tetrahydrofuran
[3] = Table II, 4 WAT, 5.6 kg/h, formulated in anhydrous tetrahydrofuran
[4] = Table II, 4 WAT, 11.2 kg/h, formulated in anhydrous tetrahydrofuran
[5] = Table III, 2 WAT, 1.1 kg/h, formulated in anhydrous tetrahydrofuran
[6] = Table III, 2 WAT, 5.6 kg/h, formulated in anhydrous tetrahydrofuran
[7] = Table III, 2 WAT, .28 kg/h, formulated in anhydrous tetrahydrofuran
[8] = Table III, 4 WAT, 1.1 kg/h, formulated in anhydrous tetrahydrofuran
[9] = Table III, 4 WAT, 5.6 kg/h, formulated in anhydrous tetrahydrofuran
[10] = Table III, 4 WAT, .28 kg/h, formulated in anhydrous tetrahydrofuran

Question: Which “Plant Response Index (A)” value (Canada Thistle; 2 WAT, 5.6 kg/h) does the source give for `CCOC(=O)CNCP(=O)(O)O[Si](c1ccccc1)(c1ccccc1)C(C)(C)C` [Ex. 7, Glycine, N--((([(1,1-Dimethylethyl)Diphenylsilyl]Oxy)Hydroxyphosphinyl)Methyl)-,Ethyl Ester] here?
Answer: The value was 1 (25-49% inhibition).

Question: What about the “Plant Response Index (A)” value (Canada Thistle; 2 WAT, 11.2 kg/h) of the same compound?
Answer: Its value is 1 (25-49% inhibition).

Question: What about the “Plant Response Index (A)” value (Canada Thistle; 4 WAT, 5.6 kg/h) of the same compound?
Answer: Its value is 3 (75-99% inhibition).

Question: And the “Plant Response Index (A)” value (Canada Thistle; 4 WAT, 11.2 kg/h)?
Answer: Its value is 3 (75-99% inhibition).

Question: What about the “Plant Response Index (S)” value (Panicum Spp; 2 WAT, 1.1 kg/h) of the same compound?
Answer: The value was 4 (100% inhibition).

Question: What about the “Plant Response Index (S)” value (Panicum Spp; 2 WAT, 1.1 kg/h, formulated in anhydrous tetrahydrofuran) of the same compound?
Answer: The value was 2 (50-74% inhibition).

Question: And the “Plant Response Index (S)” value (Panicum Spp; 2 WAT, 5.6 kg/h)?
Answer: Its value is 3 (75-99% inhibition).

Question: And the “Plant Response Index (S)” value (Panicum Spp; 2 WAT, 5.6 kg/h, formulated in anhydrous tetrahydrofuran)?
Answer: Its value is 4 (100% inhibition).

Question: What about the “Plant Response Index (S)” value (Panicum Spp; 2 WAT, .28 kg/h) of the same compound?
Answer: The value was 3 (75-99% inhibition).

Question: And the “Plant Response Index (S)” value (Panicum Spp; 2 WAT, .28 kg/h, formulated in anhydrous tetrahydrofuran)?
Answer: Its value is 1 (25-49% inhibition).

Question: And the “Plant Response Index (S)” value (Panicum Spp; 4 WAT, 1.1 kg/h)?
Answer: Its value is 4 (100% inhibition).

Question: What about the “Plant Response Index (S)” value (Panicum Spp; 4 WAT, 1.1 kg/h, formulated in anhydrous tetrahydrofuran) of the same compound?
Answer: The value was 2 (50-74% inhibition).

Question: What about the “Plant Response Index (S)” value (Panicum Spp; 4 WAT, 5.6 kg/h) of the same compound?
Answer: The value was 4 (100% inhibition).

Question: What about the “Plant Response Index (S)” value (Panicum Spp; 4 WAT, 5.6 kg/h, formulated in anhydrous tetrahydrofuran) of the same compound?
Answer: The value was 4 (100% inhibition).

Question: And the “Plant Response Index (S)” value (Panicum Spp; 4 WAT, .28 kg/h)?
Answer: Its value is 3 (75-99% inhibition).

Question: And the “Plant Response Index (S)” value (Panicum Spp; 4 WAT, .28 kg/h, formulated in anhydrous tetrahydrofuran)?
Answer: Its value is 1 (25-49% inhibition).

Question: And the “Plant Response Index (C)” value (Velvetleaf; Table II, 2 WAT, 5.6 kg/h)?
Answer: Its value is 2 (50-74% inhibition).

Question: What about the “Plant Response Index (C)” value (Velvetleaf; [1]) of the same compound?
Answer: The value was 1 (25-49% inhibition).

Question: And the “Plant Response Index (C)” value (Velvetleaf; Table II, 2 WAT, 11.2 kg/h)?
Answer: Its value is 3 (75-99% inhibition).

Question: What about the “Plant Response Index (C)” value (Velvetleaf; [2]) of the same compound?
Answer: Its value is 1 (25-49% inhibition).

Question: What about the “Plant Response Index (C)” value (Velvetleaf; Table II, 4 WAT, 5.6 kg/h) of the same compound?
Answer: Its value is 3 (75-99% inhibition).

Question: And the “Plant Response Index (C)” value (Velvetleaf; [3])?
Answer: Its value is 2 (50-74% inhibition).

Question: What about the “Plant Response Index (C)” value (Velvetleaf; Table II, 4 WAT, 11.2 kg/h) of the same compound?
Answer: Its value is 3 (75-99% inhibition).

Question: What about the “Plant Response Index (C)” value (Velvetleaf; [4]) of the same compound?
Answer: Its value is 1 (25-49% inhibition).

Question: And the “Plant Response Index (C)” value (Velvetleaf; Table III, 2 WAT, 1.1 kg/h)?
Answer: The value was 1 (25-49% inhibition).

Question: What about the “Plant Response Index (C)” value (Velvetleaf; [5]) of the same compound?
Answer: Its value is 2 (50-74% inhibition).

Question: What about the “Plant Response Index (C)” value (Velvetleaf; Table III, 2 WAT, 5.6 kg/h) of the same compound?
Answer: The value was 2 (50-74% inhibition).

Question: And the “Plant Response Index (C)” value (Velvetleaf; [6])?
Answer: Its value is 2 (50-74% inhibition).

Question: What about the “Plant Response Index (C)” value (Velvetleaf; Table III, 2 WAT, .28 kg/h) of the same compound?
Answer: Its value is 1 (25-49% inhibition).

Question: And the “Plant Response Index (C)” value (Velvetleaf; [7])?
Answer: Its value is 1 (25-49% inhibition).

Question: What about the “Plant Response Index (C)” value (Velvetleaf; Table III, 4 WAT, 1.1 kg/h) of the same compound?
Answer: Its value is 1 (25-49% inhibition).

Question: What about the “Plant Response Index (C)” value (Velvetleaf; [8]) of the same compound?
Answer: The value was 2 (50-74% inhibition).

Question: And the “Plant Response Index (C)” value (Velvetleaf; Table III, 4 WAT, 5.6 kg/h)?
Answer: Its value is 2 (50-74% inhibition).

Question: And the “Plant Response Index (C)” value (Velvetleaf; [9])?
Answer: The value was 3 (75-99% inhibition).

Question: What about the “Plant Response Index (C)” value (Velvetleaf; Table III, 4 WAT, .28 kg/h) of the same compound?
Answer: Its value is 1 (25-49% inhibition).

Question: What about the “Plant Response Index (C)” value (Velvetleaf; [10]) of the same compound?
Answer: Its value is 1 (25-49% inhibition).

Question: And the “Plant Response Index (E)” value (Common Lambsquarters; Table II, 2 WAT, 5.6 kg/h)?
Answer: The value was 3 (75-99% inhibition).

Question: And the “Plant Response Index (E)” value (Common Lambsquarters; [1])?
Answer: The value was 3 (75-99% inhibition).

Question: And the “Plant Response Index (E)” value (Common Lambsquarters; Table II, 2 WAT, 11.2 kg/h)?
Answer: The value was 4 (100% inhibition).

Question: What about the “Plant Response Index (E)” value (Common Lambsquarters; [2]) of the same compound?
Answer: Its value is 4 (100% inhibition).

Question: And the “Plant Response Index (E)” value (Common Lambsquarters; Table II, 4 WAT, 5.6 kg/h)?
Answer: The value was 3 (75-99% inhibition).

Question: What about the “Plant Response Index (E)” value (Common Lambsquarters; [3]) of the same compound?
Answer: Its value is 3 (75-99% inhibition).

Question: And the “Plant Response Index (E)” value (Common Lambsquarters; Table II, 4 WAT, 11.2 kg/h)?
Answer: Its value is 4 (100% inhibition).

Question: What about the “Plant Response Index (E)” value (Common Lambsquarters; [4]) of the same compound?
Answer: The value was 4 (100% inhibition).

Question: And the “Plant Response Index (E)” value (Common Lambsquarters; Table III, 2 WAT, 1.1 kg/h)?
Answer: Its value is 4 (100% inhibition).

Question: And the “Plant Response Index (E)” value (Common Lambsquarters; [5])?
Answer: Its value is 4 (100% inhibition).

Question: And the “Plant Response Index (E)” value (Common Lambsquarters; Table III, 2 WAT, 5.6 kg/h)?
Answer: The value was 3 (75-99% inhibition).

Question: And the “Plant Response Index (E)” value (Common Lambsquarters; [6])?
Answer: Its value is 4 (100% inhibition).

Question: What about the “Plant Response Index (E)” value (Common Lambsquarters; Table III, 2 WAT, .28 kg/h) of the same compound?
Answer: The value was 3 (75-99% inhibition).

Question: And the “Plant Response Index (E)” value (Common Lambsquarters; [7])?
Answer: Its value is 2 (50-74% inhibition).

Question: And the “Plant Response Index (E)” value (Common Lambsquarters; Table III, 4 WAT, 1.1 kg/h)?
Answer: The value was 4 (100% inhibition).

Question: And the “Plant Response Index (E)” value (Common Lambsquarters; [8])?
Answer: Its value is 4 (100% inhibition).

Question: And the “Plant Response Index (E)” value (Common Lambsquarters; Table III, 4 WAT, 5.6 kg/h)?
Answer: The value was 3 (75-99% inhibition).

Question: What about the “Plant Response Index (E)” value (Common Lambsquarters; [9]) of the same compound?
Answer: The value was 4 (100% inhibition).

Question: And the “Plant Response Index (E)” value (Common Lambsquarters; Table III, 4 WAT, .28 kg/h)?
Answer: The value was 3 (75-99% inhibition).

Question: And the “Plant Response Index (E)” value (Common Lambsquarters; [10])?
Answer: Its value is 3 (75-99% inhibition).

Question: And the “Plant Response Index (F)” value (Pennsylvania Smartweed; Table II, 2 WAT, 5.6 kg/h)?
Answer: The value was 2 (50-74% inhibition).

Question: And the “Plant Response Index (F)” value (Pennsylvania Smartweed; [1])?
Answer: Its value is 1 (25-49% inhibition).

Question: What about the “Plant Response Index (F)” value (Pennsylvania Smartweed; Table II, 2 WAT, 11.2 kg/h) of the same compound?
Answer: Its value is 2 (50-74% inhibition).

Question: And the “Plant Response Index (F)” value (Pennsylvania Smartweed; [2])?
Answer: The value was 1 (25-49% inhibition).

Question: What about the “Plant Response Index (F)” value (Pennsylvania Smartweed; Table II, 4 WAT, 5.6 kg/h) of the same compound?
Answer: The value was 4 (100% inhibition).

Question: And the “Plant Response Index (F)” value (Pennsylvania Smartweed; [3])?
Answer: The value was 1 (25-49% inhibition).

Question: What about the “Plant Response Index (F)” value (Pennsylvania Smartweed; Table II, 4 WAT, 11.2 kg/h) of the same compound?
Answer: The value was 2 (50-74% inhibition).

Question: What about the “Plant Response Index (F)” value (Pennsylvania Smartweed; [4]) of the same compound?
Answer: Its value is 4 (100% inhibition).

Question: And the “Plant Response Index (F)” value (Pennsylvania Smartweed; Table III, 2 WAT, 1.1 kg/h)?
Answer: Its value is 3 (75-99% inhibition).

Question: And the “Plant Response Index (F)” value (Pennsylvania Smartweed; [5])?
Answer: Its value is 4 (100% inhibition).

Question: What about the “Plant Response Index (F)” value (Pennsylvania Smartweed; Table III, 2 WAT, 5.6 kg/h) of the same compound?
Answer: Its value is 2 (50-74% inhibition).

Question: And the “Plant Response Index (F)” value (Pennsylvania Smartweed; [6])?
Answer: The value was 4 (100% inhibition).
